Measurements reported in article PMC11992225, “Antibacterial compounds against non-growing and intracellular bacteria” (npj Antimicrobials and Resistance, 2025).

How the values were obtained:
[1] = test system: intracellular S. flexneri 5a M90T in TC7 cells; assay: microbe, parasite or virus in culture; format: cell-based, Shigella flexneri
[2] = test system: non-growing S. aureus DSM2569; assay: Dose-dependent killing analysis (CFU spot-plating) of stationary-phase S. aureus;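 on average Δlog10(CFU/ml) (killing): drug concentration in µM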; format: cell-based, Staphylococcus aureus; conditions: S. aureus; for average Δlog10(CFU/ml) (killing): vs 9,097 before treatment
In short: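 Stationary-phase S. aureus DSM2569 was grown and treated for 24 h in 1:4 CA-MHB at pH 7.4. Treated samples were serially diluted 10-fold in PBS and spot-plated on LB agar, which was incubated overnight at 37 °C. Survivors were counted as CFU over three biological replicates.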

non-growing UPEC CFT073 = assay: Dose-dependent killing analysis (CFU spot-plating) of stationary-phase UPEC; format: cell-based, Escherichia coli;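 on average Δlog10(CFU/ml) (killing): drug concentration in µM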
In short: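 Non-growing (stationary-phase) UPEC CFT073 treated with compounds in 96-well format at 200 μl, then 10-fold serially diluted in PBS and 10 μl spots plated on LB agar. Plates incubated overnight at 37 °C; colonies counted at lowest resolvable dilution to give CFU. Three biological replicates.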

[3] = E. coli in 1:4 CA-MHB (pH 7.4), drug conc. 0.25
[4] = E. coli in 1:4 CA-MHB (pH 7.4), drug conc. 0.5
[5] = E. coli in 1:4 CA-MHB (pH 7.4), drug conc. 1
[6] = E. coli in 1:4 CA-MHB (pH 7.4), drug conc. 2.5
[7] = E. coli in 1:4 CA-MHB (pH 7.4), drug conc. 5
[8] = E. coli in 1:4 CA-MHB (pH 7.4), drug conc. 10
[9] = E. coli in LPM (pH 5.5), drug conc. 0.25
[10] = E. coli in LPM (pH 5.5), drug conc. 0.5
[11] = E. coli in LPM (pH 5.5), drug conc. 1
[12] = E. coli in LPM (pH 5.5), drug conc. 2.5
[13] = E. coli in LPM (pH 5.5), drug conc. 5
[14] = E. coli in LPM (pH 5.5), drug conc. 10

N#Cc1c(N2C[C@@H]3NCCO[C@H]3C2)c(F)cc2c(=O)c(C(=O)O)cn(C3CC3)c12 [Finafloxacin]
Fluorescence intensity (RFU), Mean, 2 x MIC ([1]; TC7 cells infected with GFP-expressing S. flexneri, 14 h treatment, 2 x MIC): 5014.06 RFU | Fluorescence intensity (RFU), Mean, 4 x MIC ([1]; TC7 cells infected with GFP-expressing S. flexneri, 14 h treatment, 4 x MIC): 3886.5 RFU | Fluorescence intensity (RFU), Mean, 8 x MIC ([1]; TC7 cells infected with GFP-expressing S. flexneri, 14 h treatment, 8 x MIC): 3157.03 RFU | Fluorescence intensity (RFU), Mean, 16 x MIC ([1]; TC7 cells infected with GFP-expressing S. flexneri, 14 h treatment, 16 x MIC): 2833.69 RFU | Fluorescence intensity (RFU), Mean, 32 x MIC ([1]; TC7 cells infected with GFP-expressing S. flexneri, 14 h treatment, 32 x MIC): 2227.19 RFU | Fluorescence intensity (RFU), Mean, MIC ([1]; TC7 cells infected with GFP-expressing S. flexneri, 14 h treatment, MIC): 6107.08 RFU | IC50 ([1]; intracellular S. flexneri in TC7 cells, GFP fluorescence after 14 h treatment, read-out: IC50): 0.202 µM | log10(CFU/ml) after treatment, replicate 1 ([2]; drug conc. 0.1): 8.820 log10(CFU/ml) | log10(CFU/ml) after treatment, replicate 2 ([2]; drug conc. 0.1): 9.041 log10(CFU/ml) | log10(CFU/ml) after treatment, replicate 3 ([2]; drug conc. 0.1): 8.982 log10(CFU/ml) | average Δlog10(CFU/ml) (killing) ([2]; drug conc. 0.1): 0.149 log10(CFU/ml) | log10(CFU/ml) after treatment, replicate 1 ([2]; drug conc. 0.5): 8.857 log10(CFU/ml) | log10(CFU/ml) after treatment, replicate 2 ([2]; drug conc. 0.5): 9.176 log10(CFU/ml) | log10(CFU/ml) after treatment, replicate 3 ([2]; drug conc. 0.5): 9.090 log10(CFU/ml) | average Δlog10(CFU/ml) (killing) ([2]; drug conc. 0.5): 0.056 log10(CFU/ml) | log10(CFU/ml) after treatment, replicate 1 ([2]; drug conc. 2.5): 8.820 log10(CFU/ml) | log10(CFU/ml) after treatment, replicate 2 ([2]; drug conc. 2.5): 8.954 log10(CFU/ml) | log10(CFU/ml) after treatment, replicate 3 ([2]; drug conc. 2.5): 8.820 log10(CFU/ml) | average Δlog10(CFU/ml) (killing) ([2]; drug conc. 2.5): 0.233 log10(CFU/ml) | log10(CFU/ml) after treatment, replicate 1 ([2]; drug conc. 10): 8.633 log10(CFU/ml) | log10(CFU/ml) after treatment, replicate 2 ([2]; drug conc. 10): 8.996 log10(CFU/ml) | log10(CFU/ml) after treatment, replicate 3 ([2]; drug conc. 10): 8.623 log10(CFU/ml) | average Δlog10(CFU/ml) (killing) ([2]; drug conc. 10): 0.346 log10(CFU/ml) | bactericidal effect against stationary-phase UPEC cultures (non-growing UPEC CFT073; 20 µM, preliminary experiments): bactericidal effects | log10(CFU/ml) after treatment, replicate 1 (non-growing UPEC CFT073; [3]): 9.322 log10(CFU/ml) | log10(CFU/ml) after treatment, replicate 2 (non-growing UPEC CFT073; [3]): 8.602 log10(CFU/ml) | log10(CFU/ml) after treatment, replicate 3 (non-growing UPEC CFT073; [3]): 8.301 log10(CFU/ml) | average Δlog10(CFU/ml) (killing) (non-growing UPEC CFT073; E. coli in 1:4 CA-MHB (pH 7.4), drug conc. 0.25, vs 8.977 before treatment): 0.236 log10(CFU/ml) | log10(CFU/ml) after treatment, replicate 1 (non-growing UPEC CFT073; [4]): 9.255 log10(CFU/ml) | log10(CFU/ml) after treatment, replicate 2 (non-growing UPEC CFT073; [4]): 8.903 log10(CFU/ml) | log10(CFU/ml) after treatment, replicate 3 (non-growing UPEC CFT073; [4]): 8.845 log10(CFU/ml) | average Δlog10(CFU/ml) (killing) (non-growing UPEC CFT073; E. coli in 1:4 CA-MHB (pH 7.4), drug conc. 0.5, vs 8.977 before treatment): -0.024 log10(CFU/ml) | log10(CFU/ml) after treatment, replicate 1 (non-growing UPEC CFT073; [5]): 9.322 log10(CFU/ml) | log10(CFU/ml) after treatment, replicate 2 (non-growing UPEC CFT073; [5]): 8.845 log10(CFU/ml) | log10(CFU/ml) after treatment, replicate 3 (non-growing UPEC CFT073; [5]): 8.699 log10(CFU/ml) | average Δlog10(CFU/ml) (killing) (non-growing UPEC CFT073; E. coli in 1:4 CA-MHB (pH 7.4), drug conc. 1, vs 8.977 before treatment): 0.022 log10(CFU/ml) | log10(CFU/ml) after treatment, replicate 1 (non-growing UPEC CFT073; [6]): 9.176 log10(CFU/ml) | log10(CFU/ml) after treatment, replicate 2 (non-growing UPEC CFT073; [6]): 9.041 log10(CFU/ml) | log10(CFU/ml) after treatment, replicate 3 (non-growing UPEC CFT073; [6]): 8.230 log10(CFU/ml) | average Δlog10(CFU/ml) (killing) (non-growing UPEC CFT073; E. coli in 1:4 CA-MHB (pH 7.4), drug conc. 2.5, vs 8.977 before treatment): 0.161 log10(CFU/ml) | log10(CFU/ml) after treatment, replicate 1 (non-growing UPEC CFT073; [7]): 8.362 log10(CFU/ml) | log10(CFU/ml) after treatment, replicate 2 (non-growing UPEC CFT073; [7]): 8.230 log10(CFU/ml) | log10(CFU/ml) after treatment, replicate 3 (non-growing UPEC CFT073; [7]): 8.000 log10(CFU/ml) | average Δlog10(CFU/ml) (killing) (non-growing UPEC CFT073; E. coli in 1:4 CA-MHB (pH 7.4), drug conc. 5, vs 8.977 before treatment): 0.780 log10(CFU/ml) | log10(CFU/ml) after treatment, replicate 1 (non-growing UPEC CFT073; [8]): 7.491 log10(CFU/ml) | log10(CFU/ml) after treatment, replicate 2 (non-growing UPEC CFT073; [8]): 7.954 log10(CFU/ml) | log10(CFU/ml) after treatment, replicate 3 (non-growing UPEC CFT073; [8]): 8.079 log10(CFU/ml) | average Δlog10(CFU/ml) (killing) (non-growing UPEC CFT073; E. coli in 1:4 CA-MHB (pH 7.4), drug conc. 10, vs 8.977 before treatment): 1.136 log10(CFU/ml) | log10(CFU/ml) after treatment, replicate 1 (non-growing UPEC CFT073; [9]): 7.114 log10(CFU/ml) | log10(CFU/ml) after treatment, replicate 2 (non-growing UPEC CFT073; [9]): 6.230 log10(CFU/ml) | log10(CFU/ml) after treatment, replicate 3 (non-growing UPEC CFT073; [9]): 8.000 log10(CFU/ml) | average Δlog10(CFU/ml) (killing) (non-growing UPEC CFT073; E. coli in LPM (pH 5.5), drug conc. 0.25, vs 7.350 before treatment): 0.236 log10(CFU/ml) | log10(CFU/ml) after treatment, replicate 1 (non-growing UPEC CFT073; [10]): 7.114 log10(CFU/ml) | log10(CFU/ml) after treatment, replicate 2 (non-growing UPEC CFT073; [10]): 6.447 log10(CFU/ml) | log10(CFU/ml) after treatment, replicate 3 (non-growing UPEC CFT073; [10]): 7.699 log10(CFU/ml) | average Δlog10(CFU/ml) (killing) (non-growing UPEC CFT073; E. coli in LPM (pH 5.5), drug conc. 0.5, vs 7.350 before treatment): 0.264 log10(CFU/ml) | log10(CFU/ml) after treatment, replicate 1 (non-growing UPEC CFT073; [11]): 6.845 log10(CFU/ml) | log10(CFU/ml) after treatment, replicate 2 (non-growing UPEC CFT073; [11]): 6.342 log10(CFU/ml) | log10(CFU/ml) after treatment, replicate 3 (non-growing UPEC CFT073; [11]): 7.204 log10(CFU/ml) | average Δlog10(CFU/ml) (killing) (non-growing UPEC CFT073; E. coli in LPM (pH 5.5), drug conc. 1, vs 7.350 before treatment): 0.553 log10(CFU/ml) | log10(CFU/ml) after treatment, replicate 1 (non-growing UPEC CFT073; [12]): 6.301 log10(CFU/ml) | log10(CFU/ml) after treatment, replicate 2 (non-growing UPEC CFT073; [12]): 6.699 log10(CFU/ml) | log10(CFU/ml) after treatment, replicate 3 (non-growing UPEC CFT073; [12]): 6.580 log10(CFU/ml) | average Δlog10(CFU/ml) (killing) (non-growing UPEC CFT073; E. coli in LPM (pH 5.5), drug conc. 2.5, vs 7.350 before treatment): 0.824 log10(CFU/ml) | log10(CFU/ml) after treatment, replicate 1 (non-growing UPEC CFT073; [13]): 6.000 log10(CFU/ml) | log10(CFU/ml) after treatment, replicate 2 (non-growing UPEC CFT073; [13]): 6.301 log10(CFU/ml) | log10(CFU/ml) after treatment, replicate 3 (non-growing UPEC CFT073; [13]): 5.903 log10(CFU/ml) | average Δlog10(CFU/ml) (killing) (non-growing UPEC CFT073; E. coli in LPM (pH 5.5), drug conc. 5, vs 7.350 before treatment): 1.282 log10(CFU/ml) | log10(CFU/ml) after treatment, replicate 1 (non-growing UPEC CFT073; [14]): 6.146 log10(CFU/ml) | log10(CFU/ml) after treatment, replicate 2 (non-growing UPEC CFT073; [14]): 6.114 log10(CFU/ml) | log10(CFU/ml) after treatment, replicate 3 (non-growing UPEC CFT073; [14]): 5.544 log10(CFU/ml) | average Δlog10(CFU/ml) (killing) (non-growing UPEC CFT073; E. coli in LPM (pH 5.5), drug conc. 10, vs 7.350 before treatment): 1.416 log10(CFU/ml)
